# Measurements from patent US7799776B2, “Indoleamine 2,3-dioxygenase (IDO) inhibitors” (The University of British Columbia, priority 2004, dated 2010).
# Where two headings read alike, the source gives them in different places.
# Tests used:
# [1] = target: recombinant human IDO (Homo sapiens, UniProt P14902); experiment: IDO inhibition kinetics (N-formylkynurenine formation, absorbance at 321 nm); assay type: biochemical; settings: for manner of IDO inhibition: assay repeated using differing concentrations
# Chain of recombinant human IDO (P14902 whole entry): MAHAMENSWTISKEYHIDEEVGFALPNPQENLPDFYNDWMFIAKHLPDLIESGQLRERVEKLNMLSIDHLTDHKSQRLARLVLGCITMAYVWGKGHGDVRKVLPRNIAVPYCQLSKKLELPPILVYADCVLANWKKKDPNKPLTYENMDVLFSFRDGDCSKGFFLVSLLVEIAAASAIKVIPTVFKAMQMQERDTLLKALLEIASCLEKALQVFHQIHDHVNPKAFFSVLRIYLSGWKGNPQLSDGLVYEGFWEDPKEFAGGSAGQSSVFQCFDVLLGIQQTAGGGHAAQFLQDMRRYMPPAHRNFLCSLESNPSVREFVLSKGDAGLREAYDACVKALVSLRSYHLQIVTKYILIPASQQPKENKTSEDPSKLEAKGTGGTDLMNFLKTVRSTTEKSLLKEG
# Experimental: The following reaction (Sono, M., Cady, S. G. Biochemistry 28, 5392-5399 (1989)) was used to measure the kinetics of inhibition of IDO using compounds of this invention as well as other compounds for comparison, as listed in Table 4.
# A solution of 0.1M potassium phosphate buffer (pH 6.5; optimal at 37° C.), 25 μM methylene blue, 200 μg/ml of catalase, 10 mM ascorbic acid, 50 nM of recombinant human IDO and 100 μM L-Tryptophan was prepared. The rate of product formation (Δε321=3.75 mM^−1 cm^−1 for N-formylkynurenine) was determined from the slope of the initial linear absorbance increase at 321 nm as a function of time.
# [2] = target: IDO (Oryctolagus cuniculus, UniProt G1SJI2); settings: tryptophan (substrate) analogues; Sono and Cady 1989, Cady and Sono 1991; cited from earlier work
# Chain of IDO (G1SJI2 1-402): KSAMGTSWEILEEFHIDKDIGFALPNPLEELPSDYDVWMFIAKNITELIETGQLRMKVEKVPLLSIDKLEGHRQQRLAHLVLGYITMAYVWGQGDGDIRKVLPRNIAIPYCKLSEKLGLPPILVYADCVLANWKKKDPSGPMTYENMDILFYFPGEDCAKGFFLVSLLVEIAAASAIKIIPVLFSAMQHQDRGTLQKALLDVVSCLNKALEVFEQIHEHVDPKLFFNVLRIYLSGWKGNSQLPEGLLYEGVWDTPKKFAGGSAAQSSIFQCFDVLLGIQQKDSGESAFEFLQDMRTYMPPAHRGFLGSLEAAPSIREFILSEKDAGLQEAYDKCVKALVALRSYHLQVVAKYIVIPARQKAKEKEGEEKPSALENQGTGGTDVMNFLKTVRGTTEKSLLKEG
# [3] = target: purified, human IDO (Homo sapiens, UniProt P14902); experiment: In vitro IDO activity assay (kynurenine adduct detected at 480 nm) used for bioassay guided fractionation; assay type: biochemical; settings: extracts and compounds identified by bioassay guided fractionation
# Chain of purified, human IDO (P14902 whole entry): as the sequence (P14902 whole entry) above
# Experimental: Various in vitro assays (see for example Takikawa, et al. J. Biol. Chem. 263, 2041-2048 (1988)) may be used to screen (e.g. high-throughput screening) or test reaction products or extracts obtained natural sources for IDO inhibition activity or to determine the kinetics of IDO inhibition. For example, IDO activity may be assayed by means of a reaction mixture (100 microlitre total volume) containing potassium phosphate buffer (50 mM, pH 6.5), ascorbic acid (20 mM), catalase (200 microgram/mL), methylene blue ([…]), L-tryptophan ([…]), and purified, human IDO. The reaction shown below may be allowed to proceed for 40 min (37° C.) and stopped by the addition of 20 microlitre of 30% (w/v) trichloroacetic acid. The N-formyl kynurenine formed from tryptophan in the reaction mixture during this time is then converted to kynurenine by incubating the reaction mixture at 65° C. for 15 minutes. After cooling the reaction mixture to room temperature, an equal volume of 2% (w/v) p-dimethylamino benzaldehyde in acetic acid may be added to convert the kynurenine present in the reaction mixture to a yellow adduct that can be detected at 480 nm. A standard curve for this latter reaction may be constructed with the use of standard solutions prepared from authentic L-kynurenine. Protein concentration may be determined by the Coomassie blue dye-binding method of Bradford with bovine serum albumin as a standard. (Takikawa et al, J. Biol. Chem. 263, 2041-2048).
# Crude extracts from the marine hydroid Garveia annula collected in British Columbia and the sponge Xestospongia sp. collected in Papua New Guinea show activity in the aforementioned assay. […] Annulins A and B, garveatins A and C, and 2-hydroxygarvin A have been previously reported (Fahy et al J. Org. Chem., (1985), 50, 1149-50; J. Org. Chem., (1986), 51, 57-61; J. Org. Chem., (1986), 51, 5145-48; Can. J. Chem., (1987), 65, 376-83), but were not known to be IDO inhibitors. Annulin C, Garvalone C and garveatins E and F are novel. […] Xestoquinone, adociaquinone A, and adociaquinone B had been previously isolated from sponge extracts and their structures have been reported in the literature (Schmitz and Bloor J. Org. Chem. (1988), 53, 3922-3925), but were not known as IDO inhibitors.
# [4] = 50 nM recombinant human IDO, 100 μM L-Tryptophan, pH 6.5, read-out: Ki
Compound,"Ki [1, 4] [µM]",IDO inhibition activity (qualitative) [3],also measured
COC1=CC(=O)c2ccccc2C1=O,0.53,,
O=C1C=C(O)C(=O)c2ccccc21,100,,
NC(Cc1coc2ccccc12)C(=O)O (racemic) [beta-(3-benzofuranyl)-DL-alanine],,,manner of IDO inhibition [2]: competitive inhibitors
"O=C1C=Cc2ccccc2C1=O [1,2 naphthoquinone, reference compound]",3.4,,
"Cn1cc(C[C@H](N)C(=O)O)c2ccccc21 [1-methyl-L-tryptophan (1MT), 1-methyl-L-tryptophan]",,,manner of IDO inhibition [2]: competitive inhibitors
CCCc1c(C(=O)OC)c(OC)cc2cc3c(c(O)c12)C(=O)C(C)(O)C(=O)C3(C)C (centres unmarked) [2-Hydroxygarvin A],2.3,active IDO inhibitors,
CC12CCCc3coc(c31)C(=O)c1cc3c(cc12)C(=O)C1=C(C3=O)S(=O)(=O)CCN1 (centres unmarked) [Adociaquinone A],0.086,active IDO inhibitors,
CC12CCCc3coc(c31)C(=O)c1cc3c(cc12)C(=O)C1=C(NCCS1(=O)=O)C3=O (centres unmarked) [Adociaquinone B],0.025,active IDO inhibitors,
"O=C1c2ccccc2C(=O)c2c1ccc(O)c2O [Alizarin, reference compound]",42,,
CCc1c(C)cc2c(c1O)C(=O)C1=C(C2=O)C(C)(C)OC1(O)C(=O)OC (centres unmarked) [Annulin A],0.694,active IDO inhibitors,
CCc1c(C)cc2c(c1O)C(=O)C1=C(C2=O)C(C)(C)C(=O)C(C)(C(=O)OC)O1 (centres unmarked) [Annulin B],0.123,active IDO inhibitors,
CCc1c(C)cc2c(c1O)C(=O)C1=C(C2=O)C(C)(C)OC1(OC)C(=O)OC (centres unmarked) [Annulin C],0.144,active IDO inhibitors,manner of IDO inhibition [1]: non-competitive
"O=c1ccc2ccccc2o1 [Coumarin, reference compound]",1110,,
"O=C1C(Cl)=C(Cl)C(=O)c2ccccc21 [Dichlone, reference compound]",,,Ki [1]: 0.045 µM
"Oc1ccc(O)cc1 [Dihydroquinone, reference compound]",> 5000,,
COC(=O)c1c(C)cc2cc3c(c(O)c2c1OC)C(=O)C(C)(CC(C)=O)C(=O)C3(C)C (centres unmarked) [Garvalone C],1.25,,
CC(=O)c1c(C)cc2cc3c(c(O)c2c1O)C(=O)C(C)=C(O)C3(C)C [Garveatin A],3.2,active IDO inhibitors,
COc1c(C(C)=O)c(C)cc2cc3c(c(O)c12)C(=O)C(C)(C)C(=O)C3(C)C [Garveatin C],1.18,active IDO inhibitors,
CCC1=C(C)C(=O)c2cc3c(c(O)c2C1=O)C(=O)C(C)=C(O)C3(C)C [Garveatin E],3.1,active IDO inhibitors,
CCc1c(C)cc2cc3c(c(O)c2c1O)C(=O)C(C)(O)C(=O)C3(C)C (centres unmarked) [Garveatin F],1.42,active IDO inhibitors,
CC1Cc2c(c(O)cc3cc4c(c(O)c23)OC(C)(C)C4(C)C)C(=O)O1 (centres unmarked) [Garvin C],~2100,,
"O=C1C=CC(=O)c2c(O)cccc21 [Juglone, reference compound]",0.048,,
"CC1=CC(=O)c2ccccc2C1=O [Menadione (Vitamin K3), Menadione, reference compound]",0.58,shown to be an IDO inhibitor,manner of IDO inhibition [1]: non-competitive
"CC1=C(C/C=C(\C)CCC[C@H](C)CCC[C@H](C)CCCC(C)C)C(=O)c2ccccc2C1=O [Vitamin K1, reference compound]",> 40,,
"CC(=O)CC(c1ccccc1)c1c(O)c2ccccc2oc1=O (centres unmarked) [Warfarin, reference compound]",> 32,,
CC12CCCc3coc(c31)C(=O)c1cc3c(cc12)C(=O)C=CC3=O (centres unmarked) [Xestoquinone],0.181,active IDO inhibitors,
Doxorubicin [reference compound],46000,,
